Test results taken from US8691815B2, “Substituted oxindole derivatives, drugs containing said derivatives and the use thereof” (AbbVie Deutschland GmbH & Co. KG, priority 2005, dated 2014).
Structures can show the parent of a compound that is named as a salt. One block for each molecule: values may come before it.

Target: T1, human vasopressin V1b receptor (Homo sapiens, UniProt P47901)
T1 construct: expressed in transfected cells; host or cells: CHO-K1 (cell line hV1b-3H2_CHO), membrane preparation
T1 sequence (P47901 1-424): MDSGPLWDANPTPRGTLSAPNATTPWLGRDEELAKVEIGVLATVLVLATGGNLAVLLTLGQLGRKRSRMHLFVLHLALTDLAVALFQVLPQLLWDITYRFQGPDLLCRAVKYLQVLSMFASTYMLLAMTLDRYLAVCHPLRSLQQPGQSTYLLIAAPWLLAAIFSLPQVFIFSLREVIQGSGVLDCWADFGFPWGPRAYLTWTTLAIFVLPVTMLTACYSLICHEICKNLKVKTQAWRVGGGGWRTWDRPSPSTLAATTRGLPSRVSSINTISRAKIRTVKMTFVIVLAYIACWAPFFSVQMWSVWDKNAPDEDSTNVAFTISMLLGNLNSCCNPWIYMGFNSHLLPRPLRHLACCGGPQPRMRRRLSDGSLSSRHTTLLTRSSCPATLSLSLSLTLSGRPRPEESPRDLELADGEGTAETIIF
Experiment: Vasopressin V1b receptor binding assay
Conditions: membranes from CHO-K1 cells with stably expressed human V1b receptors, displacement of 1.5 nM 3H-AVP
Method: Vasopressin V1b Receptor Binding Assay:
The test substances were dissolved in a concentration of 10^−2 M in DMSO (dimethyl sulfoxide) and further diluted to 5×10^−4 M to 5×10^−9 M in DMSO. This series of DMSO predilutions was diluted 1:10 with assay buffer. The substance concentration was again diluted 1:5 in the assay mixture (2% DMSO in the mixture).
The membrane pellet was again homogenized and centrifuged as described and then taken up in 50 mM Tris-HCl, pH 7.4, homogenized and stored in aliquots frozen in liquid nitrogen at −190° C.
The incubation buffer was: 50 mM Tris, 10 mM MgCl2, 0.1% BSA, pH 7.4.
The nonspecific binding was determined with 1 uM AVP (Bachem # H1780). All determinations were carried out as triplicate determinations. After incubation (60 minutes at room temperature), the free radioligand was removed by vacuum filtration (Skatron cell harvester 7000) through Whatman GF/B glass fiber filter mats, and the filters were transferred into scintillation vials. The liquid scintillation measurement took place in a Tricarb model 2000 or 2200CA instrument (Packard). Conversion of the measured cpm into dpm was carried out with the aid of a standard quench series.
The binding parameters were calculated by nonlinear regression in SAS.

Molecule: COCCN(C)Cc1ccc(OC)c(C2(N3CCC[C@H]3C(=O)N(C)C)C(=O)N(S(=O)(=O)c3ccc(OC)cc3OC)c3ccc(Cl)cc32)c1 (stereo partly drawn) [Example 33, (S)-1-[5-Chloro-1-(2,4-dimethoxybenzenesulfonyl)-3-(2-methoxy-5-{[(2-methoxy-ethyl)methylamino]methyl}phenyl)-2-oxo-2,3-dihydro-1H-indol-3-yl]pyrrolidine-2-dimethylcarboxamide, trifluoroacetic acid salt]
Ki: < 1 nM

Molecule: COc1ccc(S(=O)(=O)N2C(=O)C(c3cc(CN(C)CCN(C)C)ccc3OC)(N3CCC[C@H]3C(=O)N(C)C)c3cc(Cl)ccc32)c(OC)c1 (stereo partly drawn) [Example 29, (S)-1-[5-Chloro-1-(2,4-dimethoxybenzenesulfonyl)-3-(5-{[(2-dimethylaminoethyl)-methylamino]methyl}-2-methoxyphenyl)-2-oxo-2,3-dihydro-1H-indol-3-yl]pyrrolidine-2-dimethylcarboxamide, trifluoroacetic acid salt]
Ki: < 1 nM

Molecule: COc1ccc(S(=O)(=O)N2C(=O)C(c3ccc(CN4CCCC4)cc3OC)(N3CCC[C@H]3C(=O)N(C)C)c3cc(Cl)ccc32)c(OC)c1 (stereo partly drawn) [Example 1, (S)-1-[5-Chloro-1-(2,4-dimethoxybenzenesulfonyl)-3-(2-methoxy-4-pyrrolidin-1-yl-methylphenyl)-2-oxo-2,3-dihydro-1H-indol-3-yl]-pyrrolidine-2-dimethylcarboxamide, trifluoroacetic acid salt]
Ki: < 1 nM

Ki: < 1 nM
Molecule: COc1ccc(CN2CCN(C)CC2)cc1C1(N2CCC[C@H]2C(=O)N(C)C)C(=O)N(S(=O)(=O)c2ccc(C#N)cc2)c2ccc(Cl)cc21 (stereo partly drawn) [Example 97, (S)-1-{5-Chloro-1-(4-cyanobenzenesulfonyl)-3-[2-methoxy-5-(4-methylpiperazin-1-yl-methyl)phenyl]-2-oxo-2,3-dihydro-1H-indol-3-yl}pyrrolidine-2-carboxylic acid dimethylamide, trifluoroacetic acid salt]

Molecule: COc1ccc(S(=O)(=O)N2C(=O)C(c3cc(CN4CCOCC4)ccc3OC)(N3CCC[C@H]3C(=O)N(C)C)c3cc(Cl)ccc32)c(OC)c1 (stereo partly drawn) [Example 28, (S)-1-[5-Chloro-1-(2,4-dimethoxybenzenesulfonyl)-3-(2-methoxy-5-morpholin-4-yl-methylphenyl)-2-oxo-2,3-dihydro-1H-indol-3-yl]pyrrolidine-2-dimethylcarboxamide, trifluoroacetic acid salt]
Ki: 1 to 10 nM

Molecule: CCCNCc1ccc(C2(N3CCC[C@H]3C(=O)N(C)C)C(=O)N(S(=O)(=O)c3ccc(OC)cc3)c3ccc(Cl)cc32)c(OC)c1 (stereo partly drawn) [Example 85, (S)-1-[5-Chloro-1-(4-methoxybenzenesulfonyl)-3-(2-methoxy-4-propylaminomethyl-phenyl)-2-oxo-2,3-dihydro-1H-indol-3-yl]pyrrolidine-2-dimethylcarboxamide, trifluoroacetic acid salt]
Ki: < 1 nM

Molecule: (S)-2-{[5-Chloro-1-(2,4-dimethoxybenzenesulfonyl)-3-(4-dimethylaminomethyl-2-methoxyphenyl)-2-oxo-2,3-dihydro-1H-indol-3-yl]methylamino}-N,N-dimethyl-propionamide [Example 13]
Ki: 1 to 10 nM

Molecule: CCCNCc1ccc(OC)c(C2(N3CCC[C@H]3C(=O)N(C)C)C(=O)N(S(=O)(=O)c3ccc(C#N)cc3)c3ccc(Cl)cc32)c1 (stereo partly drawn) [Example 100, (S)-1-[5-Chloro-1-(4-cyanobenzenesulfonyl)-3-(2-methoxy-5-propylaminomethyl-phenyl)-2-oxo-2,3-dihydro-1H-indol-3-yl]pyrrolidine-2-dimethylcarboxamide, trifluoroacetic acid salt]
Ki: < 1 nM

Molecule: COc1cc(CN2CCOCC2)ccc1C1(N2CCC[C@H]2C(=O)N(C)C)C(=O)N(S(=O)(=O)c2ccc(C#N)cc2)c2ccc(Cl)cc21 (stereo partly drawn) [Example 81, (S)-1-[5-Chloro-1-(4-cyanobenzenesulfonyl)-3-(2-methoxy-4-morpholin-4-ylmethyl-phenyl)-2-oxo-2,3-dihydro-1H-indol-3-yl]pyrrolidine-2-dimethylcarboxamide, trifluoroacetic acid salt]
Ki: 1 to 10 nM

Molecule: COc1cc(CN2CCNCC2)ccc1C1(N2CCC[C@H]2C(=O)N(C)C)C(=O)N(S(=O)(=O)c2ccc(F)cc2)c2ccc(Cl)cc21 (stereo partly drawn) [Example 78, (S)-1-[5-Chloro-1-(4-fluorobenzenesulfonyl)-3-(2-methoxy-4-piperazin-1-ylmethyl-phenyl)-2-oxo-2,3-dihydro-1H-indol-3-yl]pyrrolidine-2-dimethylcarboxamide, trifluoroacetic acid salt]
Ki: < 1 nM

Ki: 1 to 10 nM
Molecule: COc1ccc(S(=O)(=O)N2C(=O)C(c3cccc(CN(C)C)c3)(N3C[C@H](O)C[C@H]3C(=O)N(C)C)c3cc(Cl)ccc32)c(OC)c1 (single isomer, unassigned) [Example 16]

Molecule: COc1ccc(S(=O)(=O)N2C(=O)C(c3cc(CN4CCCC4)ccc3OC)(N3CCC[C@H]3C(=O)N(C)C)c3cc(Cl)ccc32)c(OC)c1 (stereo partly drawn) [Example 25, (S)-1-[5-Chloro-1-(2,4-dimethoxybenzenesulfonyl)-3-(2-methoxy-5-pyrrolidin-1-yl-methylphenyl)-2-oxo-2,3-dihydro-1H-indol-3-yl]pyrrolidine-2-dimethylcarboxamide, trifluoroacetic acid salt]
Ki: < 1 nM

Molecule: COc1ccc(S(=O)(=O)N2C(=O)C(c3cc(CN4CCN(C)CC4)ccc3OC)(N3CCC[C@H]3C(=O)N(C)C)c3cc(Cl)ccc32)c(OC)c1 (stereo partly drawn) [Example 27, (S)-1-{5-Chloro-1-(2,4-dimethoxybenzenesulfonyl)-3-[2-methoxy-5-(4-methyl-piperazin-1-ylmethyl)phenyl]-2-oxo-2,3-dihydro-1H-indol-3-yl}pyrrolidine-2-dimethylcarboxamide, trifluoroacetic acid salt]
Ki: < 1 nM

Molecule: CCN(CC)Cc1ccc(C2(N3CCC[C@H]3C(=O)N(C)C)C(=O)N(S(=O)(=O)c3ccc(OC)cc3)c3ccc(Cl)cc32)c(OC)c1 (stereo partly drawn) [Example 86, (S)-1-[5-Chloro-3-(4-diethylaminomethyl-2-methoxyphenyl)-1-(4-methoxybenzene-sulfonyl)-2-oxo-2,3-dihydro-1H-indol-3-yl]pyrrolidine-2-dimethylcarboxamide, trifluoroacetic acid salt]
Ki: < 1 nM

Molecule: COc1cc(CN2CCN(C)CC2)ccc1C1(N2CCC[C@H]2C(=O)N(C)C)C(=O)N(S(=O)(=O)c2ccc(F)cc2)c2ccc(Cl)cc21 (stereo partly drawn) [Example 74, (S)-1-{5-Chloro-1-(4-fluorobenzenesulfonyl)-3-[2-methoxy-4-(4-methylpiperazin-1-yl-methyl)phenyl]-2-oxo-2,3-dihydro-1H-indol-3-yl}pyrrolidine-2-dimethylcarboxamide, trifluoroacetic acid salt]
Ki: < 1 nM

Molecule: COc1cc(CN(C)C)ccc1C1(N2CCC[C@H]2C(=O)N(C)C)C(=O)N(S(=O)(=O)c2ccc(C#N)cc2)c2ccc(Cl)cc21 (stereo partly drawn) [Example 72, (S)-1-[5-Chloro-1-(4-cyanobenzenesulfonyl)-3-(4-dimethylaminomethyl-2-methoxy-phenyl)-2-oxo-2,3-dihydro-1H-indol-3-yl]pyrrolidine-2-dimethylcarboxamide, trifluoroacetic acid salt]
Ki: 1 to 10 nM
